Test results published in the NIST ThermoML archive (doi:10.1016/j.jct.2016.04.020).

Assay: mn = molality of the nth substance listed, in mol/kg
Details: 101.3 kPa, Liquid, Vibrating tube method

O=C([O-])CC(O)(CC(=O)[O-])C(=O)[O-].[Li+].[Li+].[Li+] [trilithium citrate] + O
Details | mass density [kg/m3]
278.15 K, m1 = 0.0128 | 1002
278.15 K, m1 = 0.0256 | 1003.88
278.15 K, m1 = 0.06 | 1008.52
278.15 K, m1 = 0.1021 | 1013.86
278.15 K, m1 = 0.1956 | 1026.51
278.15 K, m1 = 0.293 | 1038.92
278.15 K, m1 = 0.3876 | 1050.53
278.15 K, m1 = 0.4799 | 1061.45
278.15 K, m1 = 0.6695 | 1083.25
278.15 K, m1 = 0.7552 | 1092.43
278.15 K, m1 = 0.8394 | 1101.64
278.15 K, m1 = 0.9407 | 1112.23
278.15 K, m1 = 1.33 | 1149.11
278.15 K, m1 = 1.74 | 1185.46
283.15 K, m1 = 0.0128 | 1001.66
283.15 K, m1 = 0.0256 | 1003.48
283.15 K, m1 = 0.06 | 1008.09
283.15 K, m1 = 0.1021 | 1013.43
283.15 K, m1 = 0.1956 | 1025.89
283.15 K, m1 = 0.293 | 1038.19
283.15 K, m1 = 0.3876 | 1049.67
283.15 K, m1 = 0.4799 | 1060.48
283.15 K, m1 = 0.6695 | 1082.11
283.15 K, m1 = 0.7552 | 1091.22
283.15 K, m1 = 0.8394 | 1100.37
283.15 K, m1 = 0.9407 | 1110.89
283.15 K, m1 = 1.33 | 1147.56
283.15 K, m1 = 1.74 | 1183.73
288.15 K, m1 = 0.0128 | 1001.03
288.15 K, m1 = 0.0256 | 1002.83
288.15 K, m1 = 0.06 | 1007.41
288.15 K, m1 = 0.1021 | 1012.68
288.15 K, m1 = 0.1956 | 1025.03
288.15 K, m1 = 0.293 | 1037.23
288.15 K, m1 = 0.3876 | 1048.63
288.15 K, m1 = 0.4799 | 1059.37
288.15 K, m1 = 0.6695 | 1080.85
288.15 K, m1 = 0.7552 | 1089.92
288.15 K, m1 = 0.8394 | 1099.01
288.15 K, m1 = 0.9407 | 1109.48
288.15 K, m1 = 1.33 | 1145.98
288.15 K, m1 = 1.74 | 1182.04
293.15 K, m1 = 0.0128 | 1000.13
293.15 K, m1 = 0.0256 | 1001.93
293.15 K, m1 = 0.06 | 1006.4
293.15 K, m1 = 0.1021 | 1011.71
293.15 K, m1 = 0.1956 | 1023.97
293.15 K, m1 = 0.293 | 1036.06
293.15 K, m1 = 0.3876 | 1047.42
293.15 K, m1 = 0.4799 | 1058.1
293.15 K, m1 = 0.6695 | 1079.46
293.15 K, m1 = 0.7552 | 1088.49
293.15 K, m1 = 0.8394 | 1097.55
293.15 K, m1 = 0.9407 | 1107.97
293.15 K, m1 = 1.33 | 1144.34
293.15 K, m1 = 1.74 | 1180.29
298.15 K, m1 = 0.0128 | 998.94
298.15 K, m1 = 0.0256 | 1000.72
298.15 K, m1 = 0.06 | 1005.21
298.15 K, m1 = 0.1021 | 1010.53
298.15 K, m1 = 0.1956 | 1022.63
298.15 K, m1 = 0.293 | 1034.68
298.15 K, m1 = 0.3876 | 1045.95
298.15 K, m1 = 0.4799 | 1056.57
298.15 K, m1 = 0.6695 | 1077.86
298.15 K, m1 = 0.7552 | 1086.85
298.15 K, m1 = 0.8394 | 1095.87
298.15 K, m1 = 0.9407 | 1106.24
298.15 K, m1 = 1.33 | 1142.51
298.15 K, m1 = 1.74 | 1178.37
303.15 K, m1 = 0.0128 | 997.54
303.15 K, m1 = 0.0256 | 999.32
303.15 K, m1 = 0.06 | 1003.8
303.15 K, m1 = 0.1021 | 1008.95
303.15 K, m1 = 0.1956 | 1021.12
303.15 K, m1 = 0.293 | 1033.1
303.15 K, m1 = 0.3876 | 1044.36
303.15 K, m1 = 0.4799 | 1054.93
303.15 K, m1 = 0.6695 | 1076.13
303.15 K, m1 = 0.7552 | 1085.11
303.15 K, m1 = 0.8394 | 1094.1
303.15 K, m1 = 0.9407 | 1104.46
303.15 K, m1 = 1.33 | 1140.64
303.15 K, m1 = 1.74 | 1176.43
308.15 K, m1 = 0.0128 | 995.93
308.15 K, m1 = 0.0256 | 997.69
308.15 K, m1 = 0.06 | 1002.15
308.15 K, m1 = 0.1021 | 1007.28
308.15 K, m1 = 0.1956 | 1019.42
308.15 K, m1 = 0.293 | 1031.35
308.15 K, m1 = 0.3876 | 1042.52
308.15 K, m1 = 0.4799 | 1053.1
308.15 K, m1 = 0.6695 | 1074.26
308.15 K, m1 = 0.7552 | 1083.2
308.15 K, m1 = 0.8394 | 1092.17
308.15 K, m1 = 0.9407 | 1102.51
308.15 K, m1 = 1.33 | 1138.61
308.15 K, m1 = 1.74 | 1174.35
313.15 K, m1 = 0.0128 | 994.08
313.15 K, m1 = 0.0256 | 995.83
313.15 K, m1 = 0.06 | 1000.28
313.15 K, m1 = 0.1021 | 1005.41
313.15 K, m1 = 0.1956 | 1017.49
313.15 K, m1 = 0.293 | 1029.43
313.15 K, m1 = 0.3876 | 1040.59
313.15 K, m1 = 0.4799 | 1051.12
313.15 K, m1 = 0.6695 | 1072.2
313.15 K, m1 = 0.7552 | 1081.14
313.15 K, m1 = 0.8394 | 1090.09
313.15 K, m1 = 0.9407 | 1100.41
313.15 K, m1 = 1.33 | 1136.47
313.15 K, m1 = 1.74 | 1172.18
318.15 K, m1 = 0.0128 | 992.05
318.15 K, m1 = 0.0256 | 993.81
318.15 K, m1 = 0.06 | 998.26
318.15 K, m1 = 0.1021 | 1003.38
318.15 K, m1 = 0.1956 | 1015.42
318.15 K, m1 = 0.293 | 1027.35
318.15 K, m1 = 0.3876 | 1038.47
318.15 K, m1 = 0.4799 | 1048.98
318.15 K, m1 = 0.6695 | 1070.04
318.15 K, m1 = 0.7552 | 1078.96
318.15 K, m1 = 0.8394 | 1087.9
318.15 K, m1 = 0.9407 | 1098.21
318.15 K, m1 = 1.33 | 1134.23
318.15 K, m1 = 1.74 | 1169.9
323.15 K, m1 = 0.0128 | 989.86
323.15 K, m1 = 0.0256 | 991.58
323.15 K, m1 = 0.06 | 996.08
323.15 K, m1 = 0.1021 | 1001.19
323.15 K, m1 = 0.1956 | 1013.22
323.15 K, m1 = 0.293 | 1025.12
323.15 K, m1 = 0.3876 | 1036.24
323.15 K, m1 = 0.4799 | 1046.74
323.15 K, m1 = 0.6695 | 1067.78
323.15 K, m1 = 0.7552 | 1076.68
323.15 K, m1 = 0.8394 | 1085.62
323.15 K, m1 = 0.9407 | 1095.92
323.15 K, m1 = 1.33 | 1131.93
323.15 K, m1 = 1.74 | 1167.57
328.15 K, m1 = 0.0128 | 987.52
328.15 K, m1 = 0.0256 | 989.24
328.15 K, m1 = 0.06 | 993.72
328.15 K, m1 = 0.1021 | 998.82
328.15 K, m1 = 0.1956 | 1010.84
328.15 K, m1 = 0.293 | 1022.76
328.15 K, m1 = 0.3876 | 1033.86
328.15 K, m1 = 0.4799 | 1044.36
328.15 K, m1 = 0.6695 | 1065.38
328.15 K, m1 = 0.7552 | 1074.27
328.15 K, m1 = 0.8394 | 1083.21
328.15 K, m1 = 0.9407 | 1093.5
328.15 K, m1 = 1.33 | 1129.51
328.15 K, m1 = 1.74 | 1165.14
333.15 K, m1 = 0.0128 | 985.04
333.15 K, m1 = 0.0256 | 986.7
333.15 K, m1 = 0.06 | 991.24
333.15 K, m1 = 0.1021 | 996.31
333.15 K, m1 = 0.1956 | 1008.42
333.15 K, m1 = 0.293 | 1020.27
333.15 K, m1 = 0.3876 | 1031.35
333.15 K, m1 = 0.4799 | 1041.87
333.15 K, m1 = 0.6695 | 1062.87
333.15 K, m1 = 0.7552 | 1071.77
333.15 K, m1 = 0.8394 | 1080.69
333.15 K, m1 = 0.9407 | 1090.99
333.15 K, m1 = 1.33 | 1127.01
333.15 K, m1 = 1.74 | 1162.66
338.15 K, m1 = 0.0128 | 982.43
338.15 K, m1 = 0.0256 | 984.02
338.15 K, m1 = 0.06 | 988.59
338.15 K, m1 = 0.1021 | 993.66
338.15 K, m1 = 0.1956 | 1005.8
338.15 K, m1 = 0.293 | 1017.67
338.15 K, m1 = 0.3876 | 1028.73
338.15 K, m1 = 0.4799 | 1039.22
338.15 K, m1 = 0.6695 | 1060.25
338.15 K, m1 = 0.7552 | 1069.15
338.15 K, m1 = 0.8394 | 1078.19
338.15 K, m1 = 0.9407 | 1088.43
338.15 K, m1 = 1.33 | 1124.43
338.15 K, m1 = 1.74 | 1160.09
343.15 K, m1 = 0.0128 | 979.51
343.15 K, m1 = 0.0256 | 981.2
343.15 K, m1 = 0.06 | 985.85
343.15 K, m1 = 0.1021 | 990.99
343.15 K, m1 = 0.1956 | 1002.94
343.15 K, m1 = 0.293 | 1014.95
343.15 K, m1 = 0.3876 | 1026.06
343.15 K, m1 = 0.4799 | 1036.55
343.15 K, m1 = 0.6695 | 1057.62
343.15 K, m1 = 0.7552 | 1066.41
343.15 K, m1 = 0.8394 | 1075.46
343.15 K, m1 = 0.9407 | 1085.78
343.15 K, m1 = 1.33 | 1121.83
343.15 K, m1 = 1.74 | 1157.54
